Measurements from ChEMBL document CHEMBL3217477, “Synthesis and biological evaluation of substituted - and -2,3-dihydrofuran naphthoquinones as potent anticandidal agents” (Medchemcomm, 2010).
In brackets after ≈: the same amount, converted by molar mass.

Tests used:
[1] = system: Pichia kudriavzevii; assay: Antifungal activity against Candida krusei assessed as growth inhibition after 24 hrs by microbroth dilution method; format: functional
[2] = system: Candida albicans; assay: Antifungal activity against Candida albicans assessed as growth inhibition at 250 ug/mL after 24 hrs by hole plate diffusion method; format: functional; settings: read-out: IZ
[3] = system: Candida tropicalis; assay: Antifungal activity against Candida tropicalis assessed as growth inhibition at 250 ug/mL after 24 hrs by hole plate diffusion method; format: functional; settings: read-out: IZ
[4] = system: Candida tropicalis; assay: Antifungal activity against Candida tropicalis assessed as growth inhibition after 24 hrs by microbroth dilution method; format: functional
[5] = system: Candida parapsilosis; assay: Antifungal activity against Candida parapsilosis assessed as growth inhibition after 24 hrs by microbroth dilution method; format: functional; settings: Lodderomyces parapsilosis
[6] = system: Kluyveromyces marxianus; assay: Antifungal activity against Candida kefyr assessed as growth inhibition at 250 ug/mL after 24 hrs by hole plate diffusion method; format: functional; settings: read-out: IZ
[7] = system: Kluyveromyces marxianus; assay: Antifungal activity against Candida kefyr assessed as growth inhibition after 24 hrs by microbroth dilution method; format: functional
[8] = system: Pichia kudriavzevii; assay: Antifungal activity against Candida krusei assessed as growth inhibition at 250 ug/mL after 24 hrs by hole plate diffusion method; format: functional; settings: read-out: IZ
[9] = system: Candida dubliniensis; assay: Antifungal activity against Candida dubliniensis assessed as growth inhibition after 24 hrs by microbroth dilution method; format: functional
[10] = system: Candida albicans; assay: Antifungal activity against Candida albicans assessed as growth inhibition after 24 hrs by microbroth dilution method; format: functional
[11] = Hemolytic activity in Swiss mouse erythrocytes at 50 ug/mL after 1 hr by spectrophotometric analysis relative to control; format: ADME, cell-based, Erythrocyte; settings: read-out: Activity
[12] = system: Candida dubliniensis; assay: Antifungal activity against Candida dubliniensis assessed as growth inhibition at 250 ug/mL after 24 hrs by hole plate diffusion method; format: functional; settings: read-out: IZ
[13] = system: Candida parapsilosis; assay: Antifungal activity against Candida parapsilosis assessed as growth inhibition at 250 ug/mL after 24 hrs by hole plate diffusion method; format: functional; settings: Lodderomyces parapsilosis, read-out: IZ
[14] = system: Candida albicans; assay: Antifungal activity against Candida albicans ATCC 90028 assessed as growth inhibition after 24 hrs by microbroth dilution method; format: functional; settings: ATCC 90028, 24 h
[15] = Cytotoxicity against mouse NIH/3T3 cells assessed as dead cells at 12.5 ug/mL after 72 hrs by Alamar Blue assay relative to control; format: cell-based; settings: nih3t3, 72 h

Structure (SMILES)	MIC [1] [µM]	zone of inhibition at 250 µg/mL [2] [mm]	zone of inhibition at 250 µg/mL [3] [mm]	MIC [4] [µM]	MIC [5] [µM]	zone of inhibition at 250 µg/mL [6] [mm]	MIC [7] [µM]	zone of inhibition at 250 µg/mL [8] [mm]	MIC [9] [µM]	MIC [10] [µM]	hemolysis at 1 h, 50 ug/mL [11] [%]	zone of inhibition at 250 µg/mL [12] [mm]	zone of inhibition at 250 µg/mL [13] [mm]	MIC [14] [µM]	mortality [15] [%]
O=C1C2=C(OC(c3ccccc3)C2)C(=O)c2ccccc21 (configuration not stated)	90.5 (≈ 25 µg/mL)	17	7.7	45.2 (≈ 12.5 µg/mL)	90.5 (≈ 25 µg/mL)	1.96	90.5 (≈ 25 µg/mL)	8.29	14.9 (≈ 4.12 µg/mL)	11.3 (≈ 3.12 µg/mL)	-1.44	4.3	6.88	90.5 (≈ 25 µg/mL)	0
Cc1ccc(C2CC3=C(O2)C(=O)c2ccccc2C3=O)cc1 (configuration not stated)	86.2 (≈ 25 µg/mL)	10.4	7.28	43.1 (≈ 12.5 µg/mL)	43.1 (≈ 12.5 µg/mL)	4.27	86.2 (≈ 25 µg/mL)	4.94	43.1 (≈ 12.5 µg/mL)	43.1 (≈ 12.5 µg/mL)	-0.786	2.75	0	86.2 (≈ 25 µg/mL)	0
O=C1C2=C(OC(c3ccc(Cl)cc3)C2)C(=O)c2ccccc21 (configuration not stated)	80.5 (≈ 25 µg/mL)	1.5	2.49	40.2 (≈ 12.5 µg/mL)	40.2 (≈ 12.5 µg/mL)	5.27	80.5 (≈ 25 µg/mL)	6.14	40.2 (≈ 12.5 µg/mL)	10.1 (≈ 3.12 µg/mL)	1.16	0	0	80.5 (≈ 25 µg/mL)	0
O=C1C2=C(OC(c3ccc(F)cc3)C2)C(=O)c2ccccc21 (configuration not stated)	85 (≈ 25 µg/mL)	10.3	3.31	42.5 (≈ 12.5 µg/mL)	42.5 (≈ 12.5 µg/mL)	7.28	85 (≈ 25 µg/mL)	9.12	42.5 (≈ 12.5 µg/mL)	21.2 (≈ 6.25 µg/mL)	-1.95	2.66	3.86	85 (≈ 25 µg/mL)	0
O=C1C2=C(OC(c3ccc(Br)cc3)C2)C(=O)c2ccccc21 (configuration not stated)	70.4 (≈ 25 µg/mL)	1.39	0	35.2 (≈ 12.5 µg/mL)	35.2 (≈ 12.5 µg/mL)	0	70.4 (≈ 25 µg/mL)	7.5	70.4 (≈ 25 µg/mL)	35.2 (≈ 12.5 µg/mL)	2.53	0.49	9.18	70.4 (≈ 25 µg/mL)	0
CC1(c2ccccc2)CC2=C(O1)C(=O)c1ccccc1C2=O (configuration not stated)	172 (≈ 50 µg/mL)	16.1	3.83	45.2 (≈ 13.1 µg/mL)	45.2 (≈ 13.1 µg/mL)	7.42	90.5 (≈ 26.3 µg/mL)	7.05	45.2 (≈ 13.1 µg/mL)	45.2 (≈ 13.1 µg/mL)	4.54	4.63	0	45.2 (≈ 13.1 µg/mL)	0
Cc1ccc(C2CC3=C(O2)C(=O)c2ccccc2C3=O)c(C)c1 (configuration not stated)	82.1 (≈ 25 µg/mL)	1.38	6.42	41.1 (≈ 12.5 µg/mL)	82.1 (≈ 25 µg/mL)	0	82.1 (≈ 25 µg/mL)	9.87	41.1 (≈ 12.5 µg/mL)	41.1 (≈ 12.5 µg/mL)	-0.217	2.02	0	82.1 (≈ 25 µg/mL)	0
O=C1C2=C(OC3(C=CC=C3)C2)C(=O)c2ccccc21	12.8 (≈ 3.22 µg/mL)	16.6	7.8	3.27 (≈ 0.818 µg/mL)	13.1 (≈ 3.28 µg/mL)	9.3	52.5 (≈ 13.1 µg/mL)	10.8	3.27 (≈ 0.818 µg/mL)	2.09 (≈ 0.523 µg/mL)	5.92	16.6	0	13.1 (≈ 3.28 µg/mL)	9
O=C1C(=O)c2ccccc2C2=C1CC(c1ccccc1)O2 (configuration not stated)	2.82 (≈ 0.779 µg/mL)	7.37	5.7	11.3 (≈ 3.12 µg/mL)	22.6 (≈ 6.25 µg/mL)	10.8	5.65 (≈ 1.56 µg/mL)	12	5.65 (≈ 1.56 µg/mL)	45.2 (≈ 12.5 µg/mL)	1.98	11.9	7.22	90.5 (≈ 25 µg/mL)	0
CC1(C)CC2=C(O1)C(=O)c1ccccc1C2=O	13.4 (≈ 3.06 µg/mL)	21.3	5.63	3.42 (≈ 0.781 µg/mL)	110 (≈ 25 µg/mL)	18.4	27.4 (≈ 6.25 µg/mL)	14.6	13.7 (≈ 3.12 µg/mL)	0.54 (≈ 0.123 µg/mL)	2.1	15.2	9.29	54.8 (≈ 12.5 µg/mL)	20
COc1cccc2c1C(=O)c1c(O)c3c(c(O)c1C2=O)C[C@@](O)(C(=O)CO)C[C@@H]3O[C@H]1C[C@H](N)[C@H](O)[C@H](C)O1 [DOXORUBICIN]	–	–	–	–	–	–	–	–	–	–	–	–	–	–	36
OC(Cn1cncn1)(Cn1cncn1)c1ccc(F)cc1F [FLUCONAZOLE]	104 (≈ 32 µg/mL)	13	15	313 (≈ 96 µg/mL)	1.63 (≈ 0.499 µg/mL)	21.2	1.63 (≈ 0.499 µg/mL)	9.64	1.63 (≈ 0.499 µg/mL)	1.63 (≈ 0.499 µg/mL)	–	12.8	10.4	1.63 (≈ 0.499 µg/mL)	–
CCC(C)n1ncn(-c2ccc(N3CCN(c4ccc(OCC5COC(Cn6cncn6)(c6ccc(Cl)cc6Cl)O5)cc4)CC3)cc2)c1=O (configuration not stated) [ITRACONAZOLE]	0.7 (≈ 0.494 µg/mL)	23.1	23.6	0.17 (≈ 0.12 µg/mL)	0.02 (≈ 0.0141 µg/mL)	30.9	0.08 (≈ 0.0565 µg/mL)	30.3	0.02 (≈ 0.0141 µg/mL)	4.42 (≈ 3.12 µg/mL)	–	19.4	26	0.17 (≈ 0.12 µg/mL)	–
